Test results as given in ChEMBL document CHEMBL4402592, “Targeting Endoplasmic Reticulum α-Glucosidase I with a Single-Dose Iminosugar Treatment Protects against Lethal Influenza and Dengue Virus Infections” (J Med Chem, 2020).
Calls of active or inactive are those of the source. No cut-off for these calls is given here.

Columns and labels:
Influenza A virus [1] = experiment: Antiviral activity against Influenza A virus (A/Texas/36/1991(H1N1)) infected in BALB/c mouse assessed as median death time at 250 mg/kg, po administered via gavage as three dosed at 8, 32 and 56 hrs post infection (reference value: 8 days); assay type: functional
dengue virus type 2 [2] = experiment: Antiviral activity against Dengue virus 2 S221 infected in DENV antibody dependent enhancement AG129 mouse model assessed as animal survival at 750 mg/kg, po administered via gavage as two doses at 24 and 40 hrs post infection (reference value: 4%); assay type: functional
dengue virus type 2 [3] = experiment: Antiviral activity against Dengue virus 2 S221 infected in DENV antibody dependent enhancement AG129 mouse model assessed as reduction in KC-GRO level at 750 mg/kg, po administered via gavage as two doses at 36 hrs and 52 hrs post infection measured at 60 hrs post-infection by electrochemiluminescence based method; assay type: functional, organism-based
Mus musculus [4] = experiment: In vivo inhibition of ERGlu1 in BALB/c mouse assessed as increase in mono-glucosylated FOS level in lung at 100 to 1000 mg/kg, po administered via gavage at 8 hrs post-infection and measured at 8 hrs post-dose by NP-HPLC analysis; assay type: functional, organism-based
Influenza A virus [5] = experiment: Antiviral activity against Influenza A virus (A/Texas/36/1991(H1N1)) infected in BALB/c mouse assessed as median death time at 250 mg/kg, po administered via gavage as single dose at 8 hrs post infection; assay type: functional
dengue virus type 2 [6] = experiment: Antiviral activity against Dengue virus 2 S221 infected in DENV antibody dependent enhancement AG129 mouse model assessed as log10 reduction in viremia by measuring foci of BHK21 cells containing DENV E at 750 mg/kg, po administered via gavage as single dose at 36 hrs post infection measured after titration of compound treated infected animal serum with BHK21 cells by TrueBlue staining based focus forming assay; assay type: functional
Mus musculus [7] = experiment: In vivo inhibition of ERGlu1 in BALB/c mouse assessed as increase in tri-glucosylated FOS level in serum at 750 mg/kg, po administered via gavage as single dose and measured after 16 hrs by NP-HPLC analysis; assay type: functional, organism-based
Mus musculus [8] = experiment: In vivo inhibition of ERGlu1 in BALB/c mouse assessed as increase in tri-glucosylated FOS level in serum at >250 mg/kg, po administered via gavage as single dose at 8 hrs post-infection measured at 8 hrs post-dose by NP-HPLC analysis; assay type: functional, organism-based
dengue virus type 2 [9] = experiment: Antiviral activity against Dengue virus 2 S221 infected in DENV antibody dependent enhancement AG129 mouse model assessed as animal survival at 750 mg/kg, po administered via gavage as two doses at 36 and 52 hrs post infection (reference value: 4%); assay type: functional
Influenza A virus [10] = experiment: Antiviral activity against Influenza A virus (A/Texas/36/1991(H1N1)) infected in BALB/c mouse assessed as animal survival at 500 mg/kg, po administered via gavage as single dose at 8 hrs post infection (reference value: 0%); assay type: functional
dengue virus type 2 [11] = experiment: Antiviral activity against Dengue virus 2 S221 infected in DENV antibody dependent enhancement AG129 mouse model assessed as animal survival at 375 mg/kg, po administered via gavage as two doses at 36 and 52 hrs post infection (reference value: 4%); assay type: functional
Influenza A virus [12] = experiment: Antiviral activity against Influenza A virus (A/Texas/36/1991(H1N1)) infected in BALB/c mouse assessed as animal survival at 750 mg/kg, po administered via gavage as single dose at 24 hrs post infection (reference value: 0%); assay type: functional
dengue virus type 2 [13] = experiment: Antiviral activity against Dengue virus 2 S221 infected in DENV antibody dependent enhancement AG129 mouse model assessed as reduction in IFN-gamma level at 750 mg/kg, po administered via gavage as single dose at 36 hrs post infection measured at 60 hrs post-infection by electrochemiluminescence based method; assay type: functional, organism-based
Influenza A virus [14] = experiment: Antiviral activity against Influenza A virus (A/Texas/36/1991(H1N1)) infected in BALB/c mouse assessed as median death time at 500 mg/kg, po administered via gavage as two doses at 8 hrs and 32 hrs post infection (reference value: 9 days); assay type: functional
Influenza A virus [15] = experiment: Antiviral activity against Influenza A virus (A/Texas/36/1991(H1N1)) infected in BALB/c mouse assessed as median death time at 250 mg/kg, po administered via gavage as two doses at 8 hrs and 32 hrs post infection (reference value: 9 days); assay type: functional
[16] = Half life in BALB/c mouse at 5 mg/kg, iv or 200 mg/kg, po measured upto 48 hrs by LC-MS/MS analysis; assay type: ADME, organism-based; details: in vivo
dengue virus type 2 [17] = experiment: Antiviral activity against Dengue virus 2 S221 infected in DENV antibody dependent enhancement AG129 mouse model assessed as animal survival at 375 mg/kg, po administered via gavage as two doses at 8 and 24 hrs post infection (reference value: 4%); assay type: functional
Mus musculus [18] = experiment: In vivo inhibition of ERGlu1 in BALB/c mouse assessed as increase in tri-glucosylated FOS level in spleen at >250 mg/kg, po administered via gavage as single dose at 8 hrs post-infection and measured at 8 hrs post dose by NP-HPLC analysis; assay type: functional, organism-based
dengue virus type 2 [19] = experiment: Antiviral activity against Dengue virus 2 S221 infected in DENV antibody dependent enhancement AG129 mouse model assessed as reduction in TNF-lapha level at 750 mg/kg, po administered via gavage as two doses at 36 hrs and 52 hrs post infection measured at 60 hrs post-infection by electrochemiluminescence based method; assay type: functional, organism-based
Mus musculus [20] = experiment: In vivo inhibition of ERGlu2 in BALB/c mouse assessed as increase in mono-glucosylated FOS level in lung at 100 mg/kg, po administered via gavage starting at 8 hrs post-infection and continuing tid for 5 days and measured at 8 hrs post-final dose by NP-HPLC analysis; assay type: functional, organism-based
Mus musculus [21] = experiment: In vivo inhibition of ERGlu1 in BALB/c mouse assessed as increase in tri-glucosylated FOS level in lung at >250 mg/kg, po administered via gavage as single dose at 8 hrs post-infection and measured at 8 hrs post dose by NP-HPLC analysis; assay type: functional, organism-based
Influenza A virus [22] = experiment: Antiviral activity against Influenza A virus (A/Texas/36/1991(H1N1)) infected in BALB/c mouse assessed as increase in animal survival rate at 100 mg/kg, po administered via gavage starting at 8 hrs post-infection and continuing TID for 5 days; assay type: functional, organism-based
dengue virus type 2 [23] = experiment: Antiviral activity against Dengue virus 2 S221 infected in DENV antibody dependent enhancement AG129 mouse model assessed as reduction in IFN-gamma level at 750 mg/kg, po administered via gavage as two doses at 36 hrs and 52 hrs post infection measured at 60 hrs post-infection by electrochemiluminescence based method; assay type: functional, organism-based
Cynomolgus monkey = experiment: In vivo inhibition of ERGlu2 in cynomolgus monkey serum assessed as increase in mono-glucosylated FOS level in serum at 26 to 258 mg/kg, po administered via gavage as single dose and measured up to 72 hrs post-dose by NP-HPLC analysis; assay type: functional, organism-based; details: Macaca fascicularis
dengue virus type 2 [24] = experiment: Antiviral activity against Dengue virus 2 S221 infected in DENV antibody dependent enhancement AG129 mouse model assessed as reduction in TNF-alpha level at 750 mg/kg, po administered via gavage as single dose at 36 hrs post infection measured at 52 hrs post-infection by electrochemiluminescence based method; assay type: functional, organism-based

COCCCCCCCCCN1C[C@H](O)[C@@H](O)[C@H](O)[C@H]1CO.Cl
Time (Influenza A virus [1]): 9.5 days | survival at 750 mg/kg (dengue virus type 2 [2]): 89% | Activity (dengue virus type 2 [3]): Active | inhibition (Mus musculus [4]): Active | Time (Influenza A virus [5]): 8 days | log(activity) (dengue virus type 2 [6]): >1 | inhibition (Mus musculus [7]): Active | inhibition (Mus musculus [8]): Active | survival at 750 mg/kg (dengue virus type 2 [9]): 100% | survival at 500 mg/kg (Influenza A virus [10]): 50% | survival at 375 mg/kg (dengue virus type 2 [11]): 100% | survival at 750 mg/kg (Influenza A virus [12]): 30% | Activity (dengue virus type 2 [13]): Active | Time (Influenza A virus [14]): >14 days | Time (Influenza A virus [15]): >14 days | half-life [16]: 5 h | survival at 375 mg/kg (dengue virus type 2 [17]): 82% | inhibition (Mus musculus [18]): Active | Activity (dengue virus type 2 [19]): Active | inhibition (Mus musculus [20]): Active | inhibition (Mus musculus [21]): Active | Activity (Influenza A virus [22]): Active | Activity (dengue virus type 2 [23]): Active | inhibition (Cynomolgus monkey): Active | Activity (dengue virus type 2 [24]): Active
